Measured values: patent publication US9975854B2, “Benzomorphan analogs and use thereof” (Purdue Pharma L.P., priority 2014, dated 2018)

Columns and labels:
Assay type in all cases: biochemical
[1] = molecular target: κ-opioid receptor (Homo sapiens (Human), UniProt P41145); assay: κ-opioid receptor [35S]GTPγS functional assay, U-2 OS cells; conditions: for Emax: relative to U69,593
Experimental: Functional [^35S]GTPγS binding assays were conducted as follows. K opioid receptor membrane solution was prepared by sequentially adding final concentrations of 0.026 μg/μl κ membrane protein (in-house), 10 μg/mL saponin, 3 μM GDP and 0.20 nM [^35S]GTPγS to binding buffer (100 mM NaCl, 10 mM MgCl2, 20 mM HEPES, pH 7.4) on ice. The prepared membrane solution (190 μl/well) was transferred to 96-shallow well polypropylene plates containing 10 μl of 20× concentrated stock solutions of agonist prepared in DMSO. Plates were incubated for 30 min at a temperature of about 25° C. with shaking. Reactions were terminated by rapid filtration onto 96-well Unifilter GF/B filter plates (Perkin Elmer, Shelton, Conn.) using a 96-well tissue harvester (Packard) and followed by three filtration washes with 200 μl ice-cold binding buffer (10 mM NaH2PO4, 10 mM Na2HPO4, pH 7.4). Filter plates were subsequently dried at 50° C. for 2-3 hours. Fifty μl/well scintillation cocktail (Perkin Elmer, Shelton, Conn.) was added and plates were counted in a Packard Top-Count for 1 min/well.
κ GTP EC50 is the concentration of a compound providing 50% of the maximal response for the compound at a κ receptor.
κ GTP Emax (%) is the maximal effect elicited by a compound relative to the effect elicited by U69,593.
(§1) In TABLE 5, activity response of certain Compounds of the Invention to the μ- and κ-opioid receptors was determined as described above for functional assays using U-2 OS cells.

[2] = molecular target: T1, μ-opioid receptor (Homo sapiens (Human), UniProt P35372); assay: μ-opioid receptor [35S]GTPγS functional assay, U-2 OS cells; conditions: for Emax: relative to DAMGO
Experimental: (§2) [^35S]GTPγS functional assays were conducted using freshly thawed μ-receptor membranes prepared in-house from a cell line expressing recombinant opioid receptor in a HEK-293, CHO or U-2 OS cell background, or purchased from a commercial source (Perkin Elmer, Shelton, Conn.; or DiscovRx, Fremont, Calif.). Assay reactions were prepared by sequentially adding the following reagents to binding buffer (100 mM NaCl, 10 mM MgCl2, 20 mM HEPES, pH 7.4) on ice (final concentrations indicated): membrane protein (0.026 mg/mL), saponin ([…]), GDP ([…]) and [^35S]GTPγS (0.20 nM; Perkin Elmer, Shelton, Conn.). The prepared membrane solution (190 μl/well) was transferred to 96-shallow well polypropylene plates containing 10 μl of 20× concentrated stock solutions of the agonist [D-Ala^2, N-methyl-Phe^4 Gly-ol^5]-enkephalin (DAMGO) prepared in dimethyl sulfoxide (DMSO). Plates were incubated for 30 min at about 25° C. with shaking. Reactions were terminated by rapid filtration onto 96-well Unifilter GF/B filter plates (Perkin Elmer, Shelton, Conn.) using a 96-well tissue harvester (Perkin Elmer, Shelton, Conn.) followed by three filtration washes with 200 μl of ice-cold wash buffer (10 mM NaH2PO4, 10 mM Na2HPO4, pH 7.4). Filter plates were subsequently dried at 50° C. for 2-3 hr. BetaScint scintillation cocktail (Perkin Elmer, Shelton, Conn.) was added (50 μl/well) and plates were counted using a Packard Top-Count for 1 min/well. Data were analyzed using the sigmoidal dose-response curve fitting functions in GraphPad PRISM v. 3.0, or an in-house function for non-linear, sigmoidal dose-response curve-fitting.
(§3) μ GTP EC50 is the concentration of a compound providing 50% of the maximal response for the compound at a μ-opioid receptor.
(§4) μ GTP Emax (%) is the maximal effect elicited by a compound relative to the effect elicited by DAMGO, a standard p agonist. Generally, the μ GTP Emax (%) value measures the efficacy of a compound to treat or prevent pain or other Conditions.
as §1

[3] = molecular target: T1, μ-opioid receptor; assay: μ-opioid receptor [35S]GTPγS functional assay, HEK-293 or CHO cells; conditions: HEK-293 or CHO cells; for EC50: read-out: GTPγS μ EC50; for Emax: relative to DAMGO
Experimental: as §2, §3, §4
In TABLE 4, activity response of certain Compounds of the Invention to the μ- and κ-opioid receptors was determined as described above for functional assays using HEK-293 or CHO cells.

SMILES	EC50 [1] [nM]	Emax [1] [%]	EC50 [2] [nM]	Emax [2] [%]	EC50 [3] [µM]	Emax [3] [%]	EC50 ([3]; bound given in uM) [µM]
CN1CC[C@@]2(C)c3cc(O)ccc3C[C@@H]1[C@@H]2N(C)CC(=O)Nc1nc2ccc(F)cc2s1 [Compound 40, N-(6-fluorobenzo[d]thiazol-2-yl)-2-(((2R,6S,11R)-8-hydroxy-3,6-dimethyl-1,2,3,4,5,6-hexahydro-2,6-methanobenzo[d]azocin-11-yl)(methyl)amino)acetamide]	10900 ± 1410	45.2 ± 4.82	539 ± 62.8	18.7 ± 0.67	–	–	–
CN1CC[C@@]2(C)c3cc(O)ccc3C[C@@H]1[C@@H]2N(C)C(=O)CC(=O)Nc1ccc(F)cc1F [Compound 26, N^1-(2,4-difluorophenyl)-N^3—((2R,6S,11R)-8-hydroxy-3,6-dimethyl-1,2,3,4,5,6-hexahydro-2,6-methanobenzo[d]azocin-11-yl)-N^3-methylmalonamide]	54.3 ± 9.45	81.7 ± 10.7	0.33 ± 0.025	107 ± 3.06	0.00397 ± 0.00025	76.7 ± 2.73	–
CN1CC[C@@]2(C)c3cc(O)ccc3C[C@@H]1[C@@H]2NCC1(O)CCCCC1 [Compound 14, (2R,6S,11R)-11-(((1-hydroxycyclohexyl)methyl)amino)-3,6-dimethyl-1,2,3,4,5,6-hexahydro-2,6-methanobenzo[d]azocin-8-ol]	–	–	–	–	8.69 ± 2.27	15 ± 1.58	–
CN1CC[C@@]2(C)c3cc(O)ccc3C[C@@H]1[C@@H]2N(C)CC(=O)Nc1ccc(C(F)(F)F)cc1 [Compound 41, 2-(((2R,6S,11R)-8-hydroxy-3,6-dimethyl-1,2,3,4,5,6-hexahydro-2,6-methanobenzo[d]azocin-11-yl)(methyl)amino)-N-(4-(trifluoromethyl)phenyl)acetamide]	–	–	–	–	–	5.33 ± 1.45	> 20
CN1CCC2(C)c3cc(O)ccc3C[C@@H]1C2NS(=O)(=O)c1ccccc1 (stereo in doubt) [Compound 102, N-((2R,6S,11S)-8-hydroxy-3,6-dimethyl-1,2,3,4,5,6-hexahydro-2,6-methanobenzo[d]azocin-11-yl)benzenesulfonamide]	–	–	–	–	–	-1	> 20
CN1CC[C@@]2(C)c3cc(O)ccc3C[C@@H]1[C@H]2N(C)C(=O)Nc1nc2cc(F)ccc2s1 [Compound 82, 3-(5-fluorobenzo[d]thiazol-2-yl)-1-((2R,6S,11S)-8-hydroxy-3,6-dimethyl-1,2,3,4,5,6-hexahydro-2,6-methanobenzo[d]azocin-11-yl)-1-methylurea]	–	–	–	–	–	1	> 20
CN1CC[C@@]2(C)c3cc(O)ccc3C[C@@H]1[C@H]2N(C)C(=O)Cc1ccc(S(C)(=O)=O)cc1 [Compound 35, N-((2R,6S,11S)-8-hydroxy-3,6-dimethyl-1,2,3,4,5,6-hexahydro-2,6-methanobenzo[d]azocin-11-yl)-N-methyl-2-(4-(methylsulfonyl)phenyl)acetamide]	–	–	–	–	–	2 ± 0.41	> 20
CN1CC[C@@]2(C)c3cc(O)ccc3C[C@@H]1[C@@H]2N(C)C(=O)Nc1nc2ccc(F)cc2s1 [Compound 81, 3-(6-fluorobenzo[d]thiazol-2-yl)-1-((2R,6S,11R)-8-hydroxy-3,6-dimethyl-1,2,3,4,5,6-hexahydro-2,6-methanobenzo[d]azocin-11-yl)-1-methylurea]	–	–	–	–	–	-1	> 20
CN1CC[C@@]2(C)c3cc(O)ccc3C[C@@H]1[C@@H]2NCCOc1ccccc1 [Compound 15, (2R,6S,11R)-3,6-dimethyl-11-((2-phenoxyethyl)amino)-1,2,3,4,5,6-hexahydro-2,6-methanobenzo[d]azocin-8-ol]	–	–	–	–	0.124 ± 0.0204	97.7 ± 1.76	–
CN1CC[C@@]2(C)c3cc(O)ccc3C[C@@H]1[C@H]2NCCC1CCCCC1 [Compound 17, (2R,6S,11 S)-11-((2-cyclohexylethyl)amino)-3,6-dimethyl-1,2,3,4,5,6-hexahydro-2,6-methanobenzo[d]azocin-8-ol]	–	–	–	–	0.0929 ± 0.00079	55.3 ± 4.1	–
CN1CC[C@@]2(C)c3cc(O)ccc3C[C@@H]1[C@H]2NCCC1(O)CCCCC1 [Compound 12, (2R,6S,11S)-11-((2-(1-hydroxycyclohexyl)ethyl)amino)-3,6-dimethyl-1,2,3,4,5,6-hexahydro-2,6-methano-benzo[d]azocin-8-ol]	137 ± 20.1	54 ± 5.92	33.6 ± 1.43	100 ± 1.67	0.223 ± 0.0298	47.7 ± 4.84	–
CN1CC[C@@]2(C)c3cc(C(=O)O)ccc3C[C@@H]1[C@H]2NCCc1ccc(S(C)(=O)=O)cc1 [Compound 125, (2R,6S,11S)-3,6-dimethyl-11-((4-(methylsulfonyl)phenethyl)amino)-1,2,3,4,5,6-hexahydro-2,6-methanobenzo[d]azocine-8-carboxylic acid]	–	–	–	–	–	0	> 20
CN1CC[C@@]2(C)c3cc(C#N)ccc3C[C@@H]1[C@@H]2NCCc1ccccc1 [Compound 113, (2R,6S,11R)-3,6-dimethyl-11-(phenethylamino)-1,2,3,4,5,6-hexahydro-2,6-methanobenzo[d]azocine-8-carbonitrile]	–	–	–	–	11.7 ± 2.81	10.3 ± 1.1	–
CN1CC[C@@]2(C)c3cc(O)ccc3C[C@@H]1[C@@H]2NC(=O)CC(=O)Nc1ccc(F)cc1F [Compound 30, N^1-(2,4-difluorophenyl)-N^3—((2R,6S,11R)-8-hydroxy-3,6-dimethyl-1,2,3,4,5,6-hexahydro-2,6-methanobenzo[d]azocin-11-yl)malonamide]	–	–	–	–	–	2.67 ± 3.67	> 20
CN1CCC2(C)c3cc(O)ccc3C[C@@H]1C2NC(=O)Cc1ccccc1 (stereo in doubt) [Compound 29, N-((2R,6S,11S)-8-hydroxy-3,6-dimethyl-1,2,3,4,5,6-hexahydro-2,6-methanobenzo[d]azocin-11-yl)-2-phenylacetamide]	–	–	–	–	–	1	> 20
CN1CC[C@@]2(C)c3cc(O)ccc3C[C@@H]1[C@H]2NCC1(O)CCCCC1 [Compound 13, (2R,6S,11S)-11-(((1-hydroxycyclohexyl)methyl)amino)-3,6-dimethyl-1,2,3,4,5,6-hexahydro-2,6-methano-benzo[d]azocin-8-ol]	–	–	–	–	1.07 ± 0.172	45.7 ± 1.76	–
